Results: patent publication US8569344B2, “N-piperidinyl acetamide derivatives as calcium channel blockers” (Zalicus Pharmaceuticals Ltd., priority 2008, dated 2013)

Tests used:
[1] = biological target: T1, human α1G T-type channels (Homo sapiens, UniProt O43497); assay: T-type calcium channel block, whole cell patch clamp in HEK cells (α1G); assay type: cell-based; settings: HEK cells, patch clamp, mainly non-inactivated protocol; values above 10 μM shown as 10 μM, below 0.30 μM shown as 0.30 μM; read-out: T-type Calcium Channel Block α1G IC50
T1 construct: expressed in transfected cells; host or cells: HEK 293
T1 sequence (O43497 whole entry): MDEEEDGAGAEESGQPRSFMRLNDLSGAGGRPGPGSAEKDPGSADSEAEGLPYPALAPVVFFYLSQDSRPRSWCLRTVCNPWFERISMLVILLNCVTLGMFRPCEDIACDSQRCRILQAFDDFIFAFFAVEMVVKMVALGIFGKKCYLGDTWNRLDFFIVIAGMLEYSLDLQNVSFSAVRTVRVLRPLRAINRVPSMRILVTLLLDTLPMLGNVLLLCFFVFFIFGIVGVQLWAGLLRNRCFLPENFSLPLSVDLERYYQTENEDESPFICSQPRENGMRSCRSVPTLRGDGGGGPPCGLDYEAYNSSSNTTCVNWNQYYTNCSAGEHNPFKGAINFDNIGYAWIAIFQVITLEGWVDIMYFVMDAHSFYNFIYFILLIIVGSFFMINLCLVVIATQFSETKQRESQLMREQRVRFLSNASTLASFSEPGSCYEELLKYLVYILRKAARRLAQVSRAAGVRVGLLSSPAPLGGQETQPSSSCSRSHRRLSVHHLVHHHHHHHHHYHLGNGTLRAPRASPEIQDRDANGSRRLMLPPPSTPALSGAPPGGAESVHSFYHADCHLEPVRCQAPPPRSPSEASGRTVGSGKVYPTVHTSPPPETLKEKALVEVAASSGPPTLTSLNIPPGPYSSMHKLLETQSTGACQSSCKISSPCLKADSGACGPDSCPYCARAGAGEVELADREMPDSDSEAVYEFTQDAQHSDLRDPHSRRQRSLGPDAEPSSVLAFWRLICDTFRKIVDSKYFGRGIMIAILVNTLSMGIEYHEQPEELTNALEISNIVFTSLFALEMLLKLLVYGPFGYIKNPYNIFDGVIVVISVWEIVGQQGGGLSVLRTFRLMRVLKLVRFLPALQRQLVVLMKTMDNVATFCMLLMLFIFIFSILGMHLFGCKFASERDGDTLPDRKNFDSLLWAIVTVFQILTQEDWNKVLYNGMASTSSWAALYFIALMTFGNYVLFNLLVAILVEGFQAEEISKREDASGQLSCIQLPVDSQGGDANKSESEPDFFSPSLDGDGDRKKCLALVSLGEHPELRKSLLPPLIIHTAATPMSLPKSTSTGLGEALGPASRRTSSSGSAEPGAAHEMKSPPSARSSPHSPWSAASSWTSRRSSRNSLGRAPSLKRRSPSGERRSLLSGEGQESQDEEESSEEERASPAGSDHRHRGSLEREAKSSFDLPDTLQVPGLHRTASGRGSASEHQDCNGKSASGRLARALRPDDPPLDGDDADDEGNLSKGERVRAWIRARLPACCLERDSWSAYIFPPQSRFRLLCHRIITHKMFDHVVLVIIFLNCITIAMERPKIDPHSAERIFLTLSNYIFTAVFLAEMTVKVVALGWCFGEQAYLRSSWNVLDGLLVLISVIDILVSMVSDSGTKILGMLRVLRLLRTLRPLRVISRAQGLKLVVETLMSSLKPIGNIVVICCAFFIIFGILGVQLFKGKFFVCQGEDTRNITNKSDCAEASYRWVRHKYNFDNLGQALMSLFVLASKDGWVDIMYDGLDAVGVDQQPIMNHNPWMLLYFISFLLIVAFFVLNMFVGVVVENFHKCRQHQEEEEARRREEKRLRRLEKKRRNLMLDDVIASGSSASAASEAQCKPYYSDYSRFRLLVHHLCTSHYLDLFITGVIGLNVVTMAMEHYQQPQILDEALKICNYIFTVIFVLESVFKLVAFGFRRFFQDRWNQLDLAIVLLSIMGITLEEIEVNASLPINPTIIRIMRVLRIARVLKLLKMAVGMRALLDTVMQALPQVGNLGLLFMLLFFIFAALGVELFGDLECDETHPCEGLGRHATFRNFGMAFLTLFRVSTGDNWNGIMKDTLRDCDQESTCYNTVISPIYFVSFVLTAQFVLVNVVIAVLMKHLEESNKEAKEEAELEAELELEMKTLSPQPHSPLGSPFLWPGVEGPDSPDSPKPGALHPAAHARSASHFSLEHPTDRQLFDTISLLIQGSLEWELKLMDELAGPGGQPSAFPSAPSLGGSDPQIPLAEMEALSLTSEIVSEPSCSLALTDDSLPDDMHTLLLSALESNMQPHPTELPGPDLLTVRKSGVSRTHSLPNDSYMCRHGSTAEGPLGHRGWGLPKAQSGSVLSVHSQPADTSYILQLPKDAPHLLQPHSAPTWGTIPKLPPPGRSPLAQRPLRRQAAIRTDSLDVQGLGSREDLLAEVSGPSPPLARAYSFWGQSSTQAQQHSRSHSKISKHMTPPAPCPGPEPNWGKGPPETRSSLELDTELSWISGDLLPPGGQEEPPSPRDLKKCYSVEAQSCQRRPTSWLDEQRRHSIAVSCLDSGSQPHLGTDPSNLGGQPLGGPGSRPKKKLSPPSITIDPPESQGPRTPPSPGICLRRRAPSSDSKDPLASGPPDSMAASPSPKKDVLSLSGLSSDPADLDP

[2] = biological target: T2, human α1H T-type channels (Homo sapiens, UniProt O95180); assay: T-type calcium channel block, whole cell patch clamp in HEK cells (α1H); assay type: cell-based; settings: HEK cells, patch clamp, mainly non-inactivated protocol; values above 10 μM shown as 10 μM; read-out: T-type Calcium Channel Block α1H IC50
T2 construct: expressed in transfected cells; host or cells: HEK 293
T2 sequence (O95180 whole entry): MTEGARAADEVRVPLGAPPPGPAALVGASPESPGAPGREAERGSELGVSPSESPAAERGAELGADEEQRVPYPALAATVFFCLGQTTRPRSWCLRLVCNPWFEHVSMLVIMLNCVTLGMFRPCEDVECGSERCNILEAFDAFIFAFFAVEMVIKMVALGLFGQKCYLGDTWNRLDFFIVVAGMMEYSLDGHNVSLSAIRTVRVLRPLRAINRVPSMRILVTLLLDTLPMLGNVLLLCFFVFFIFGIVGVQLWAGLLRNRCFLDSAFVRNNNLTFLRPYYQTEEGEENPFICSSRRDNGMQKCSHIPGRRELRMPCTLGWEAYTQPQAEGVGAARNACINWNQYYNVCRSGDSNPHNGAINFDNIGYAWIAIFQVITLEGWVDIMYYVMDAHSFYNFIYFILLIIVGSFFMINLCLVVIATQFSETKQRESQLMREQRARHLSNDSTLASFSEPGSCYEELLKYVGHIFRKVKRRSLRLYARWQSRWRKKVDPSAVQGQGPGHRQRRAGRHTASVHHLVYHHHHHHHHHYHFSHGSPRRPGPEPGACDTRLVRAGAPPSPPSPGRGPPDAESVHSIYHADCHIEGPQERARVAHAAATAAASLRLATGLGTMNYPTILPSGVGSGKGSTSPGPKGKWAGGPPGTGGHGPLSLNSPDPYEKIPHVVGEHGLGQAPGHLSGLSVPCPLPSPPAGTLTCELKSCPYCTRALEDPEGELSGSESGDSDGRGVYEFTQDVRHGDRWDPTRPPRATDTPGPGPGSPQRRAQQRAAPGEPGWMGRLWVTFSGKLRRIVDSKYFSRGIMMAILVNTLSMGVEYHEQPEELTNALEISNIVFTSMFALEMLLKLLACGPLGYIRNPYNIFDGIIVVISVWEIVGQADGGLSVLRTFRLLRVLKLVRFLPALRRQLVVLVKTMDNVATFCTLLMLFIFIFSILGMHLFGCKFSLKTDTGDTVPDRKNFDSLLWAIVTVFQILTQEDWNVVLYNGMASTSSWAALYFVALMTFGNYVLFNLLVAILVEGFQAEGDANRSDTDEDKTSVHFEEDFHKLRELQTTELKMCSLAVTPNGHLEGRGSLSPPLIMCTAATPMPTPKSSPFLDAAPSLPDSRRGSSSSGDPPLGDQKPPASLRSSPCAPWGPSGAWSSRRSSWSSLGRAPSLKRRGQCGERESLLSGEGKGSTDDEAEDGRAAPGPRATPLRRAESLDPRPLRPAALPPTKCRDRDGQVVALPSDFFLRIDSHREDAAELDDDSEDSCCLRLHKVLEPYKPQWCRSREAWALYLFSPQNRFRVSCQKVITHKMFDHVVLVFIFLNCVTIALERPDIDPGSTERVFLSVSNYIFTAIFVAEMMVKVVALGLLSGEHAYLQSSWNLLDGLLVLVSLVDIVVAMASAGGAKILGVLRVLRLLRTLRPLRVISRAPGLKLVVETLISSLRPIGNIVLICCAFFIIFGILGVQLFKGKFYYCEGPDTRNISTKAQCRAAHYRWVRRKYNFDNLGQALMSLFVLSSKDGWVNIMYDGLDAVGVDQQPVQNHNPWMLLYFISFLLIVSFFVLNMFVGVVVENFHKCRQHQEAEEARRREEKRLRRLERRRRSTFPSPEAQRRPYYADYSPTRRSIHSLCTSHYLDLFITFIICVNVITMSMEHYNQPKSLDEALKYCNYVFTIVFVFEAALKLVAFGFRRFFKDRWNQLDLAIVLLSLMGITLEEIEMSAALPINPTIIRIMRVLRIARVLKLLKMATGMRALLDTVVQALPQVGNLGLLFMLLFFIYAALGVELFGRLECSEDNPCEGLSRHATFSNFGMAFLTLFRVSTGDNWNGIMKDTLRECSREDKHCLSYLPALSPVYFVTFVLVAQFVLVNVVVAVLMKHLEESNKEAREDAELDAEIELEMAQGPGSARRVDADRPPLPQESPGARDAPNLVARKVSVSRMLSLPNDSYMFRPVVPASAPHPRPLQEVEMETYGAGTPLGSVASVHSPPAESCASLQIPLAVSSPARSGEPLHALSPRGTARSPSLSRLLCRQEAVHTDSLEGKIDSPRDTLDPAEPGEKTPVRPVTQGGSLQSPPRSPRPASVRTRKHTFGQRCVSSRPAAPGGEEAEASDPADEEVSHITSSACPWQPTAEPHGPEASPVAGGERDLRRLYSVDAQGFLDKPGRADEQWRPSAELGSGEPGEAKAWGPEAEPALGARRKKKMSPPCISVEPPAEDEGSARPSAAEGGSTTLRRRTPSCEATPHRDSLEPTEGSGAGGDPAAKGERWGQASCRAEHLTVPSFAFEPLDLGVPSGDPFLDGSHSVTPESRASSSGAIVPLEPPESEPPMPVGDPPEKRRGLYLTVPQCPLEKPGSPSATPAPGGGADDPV

IC50 [1] | IC50 [2] | Structure (SMILES)
< 300 nM | 210 nM | Cc1cc(C)cc(C(=O)NCC2CCN(CC(=O)N3CCC[C@H]3C(F)(F)F)CC2)c1 [Compound 463, (S)-3,5-dimethyl-N-((1-(2-oxo-2-(2-(trifluoromethyl)pyrrolidin-1-yl)ethyl)piperidin-4-yl)methyl) benzamide]
< 300 nM | 140 nM | Cc1cc(F)cc(C(=O)NCC2CCN(CC(=O)N3CCC[C@H]3C(F)(F)F)CC2)c1 [Compound 464, (S)-3-fluoro-5-methyl-N-((1-(2-oxo-2-(2-(trifluoromethyl)pyrrolidin-1-yl)ethyl)piperidin-4-yl)methyl)benzamide]
< 300 nM | 170 nM | COc1cc(F)cc(C(=O)NCC2CCN(CC(=O)N3CCC[C@H]3C(F)(F)F)CC2)c1 [Compound 465, (S)-3-fluoro-5-methoxy-N-((1-(2-oxo-2-(2-(trifluoromethyl)pyrrolidin-1-yl)ethyl)piperidin-4-yl)methyl)benzamide]
< 300 nM | 270 nM | COc1cc(OC)cc(C(=O)NCC2CCN(CC(=O)N3CCC[C@H]3C(F)(F)F)CC2)c1 [Compound 466, (S)-3,5-dimethoxy-N-((1-(2-oxo-2-(2-(trifluoromethyl)pyrrolidin-1-yl)ethyl)piperidin-4-yl)methyl)benzamide]
< 300 nM | 170 nM | O=C(NCC1CCN(CC(=O)N2CCC[C@H]2C(F)(F)F)CC1)c1cccc(C(F)(F)F)c1 [Compound 467, (S)-N-((1-(2-oxo-2-(2-(trifluoromethyl)pyrrolidin-1-yl)ethyl)piperidin-4-yl)methyl)-3-(trifluoromethyl)benzamide]
< 300 nM | 40 nM | O=C(NCC1CCN(CCNC(=O)C2(C(F)(F)F)CC2)CC1)c1cccc(OC(F)(F)F)c1 [Compound 474, 3-(trifluoromethoxy)-N-((1-(2-(1-(trifluoromethyl)cyclopropanecarbox-amido)ethyl)piperidin-4-yl)methyl) benzamide]
< 300 nM | 170 nM | Cc1cc(C)cc(C(=O)NCC2CCN(CC(=O)NC3(C)CCC3)CC2)c1 [Compound 475, 3,5-dimethyl-N-((1-(2-(1-methylcyclobutylamino)-2-oxoethyl)piperidin-4-yl)methyl) benzamide]
< 300 nM | 150 nM | CC1(NC(=O)CN2CCC(CNC(=O)c3cccc(C(F)(F)F)c3)CC2)CCC1 [Compound 479, N-((1-(2-(1-methylcyclobutylamino)-2-oxoethyl)piperidin-4-yl)methyl)-3-(trifluoromethyl)benzamide]
< 300 nM | 180 nM | CC1(NC(=O)CN2CCC(CNC(=O)c3cccc(Br)c3)CC2)CCC1 [Compound 480, 3-bromo-N-((1-(2-(1-methylcyclobutylamino)-2-oxoethyl)piperidin-4-yl)methyl) benzamide]
< 300 nM | 250 nM | CC1(NC(=O)CN2CCC(CNC(=O)c3cccc(Cl)c3)CC2)CCC1 [Compound 481, 3-chloro-N-((1-(2-(1-methylcyclo-butylamino)-2-oxoethyl)piperidin-4-yl)methyl)benzamide]
< 300 nM | 110 nM | CC1(NC(=O)CN2CCC(CNC(=O)c3cccc(OC(F)(F)F)c3)CC2)CCC1 [Compound 483, N-((1-(2-(1-methylcyclobutylamino)-2-oxoethyl)piperidin-4-yl)methyl)-3-(trifluoromethoxy)benzamide]
> 10000 nM | > 10000 nM | CCONC(=O)CN1CCC(CNC(=O)c2cc(C(F)(F)F)cc(C(F)(F)F)c2)CC1 [Compound 486, N-((1-(2-(ethoxyamino)-2-oxoethyl)piperidin-4-yl)methyl)-3,5-bis(trifluoromethyl)benzamide]
420 nM | 130 nM | Cc1cc(C)cc(C(=O)NCC2CCN(CCNC(=O)C(C)(C)C(F)(F)F)CC2)c1 [Compound 488, 3,5-dimethyl-N-((1-(2-(3,3,3-trifluoro-2,2-dimethylpropanamido)ethyl)piperidin-4-yl)methyl)benzamide]
< 300 nM | 190 nM | COc1cc(OC)cc(C(=O)NCC2CCN(CCNC(=O)C(C)(C)C(F)(F)F)CC2)c1 [Compound 491, 3,5-dimethoxy-N-((1-(2-(3,3,3-trifluoro-2,2-dimethylpropanamido)ethyl)piperidin-4-yl)methyl)benzamide]
< 300 nM | 160 nM | CC(C)(C(=O)NCCN1CCC(CNC(=O)c2cccc(Cl)c2)CC1)C(F)(F)F [Compound 494, 3-chloro-N-((1-(2-(3,3,3-trifluoro-2,2-dimethylpropanamido)ethyl)piperidin-4-yl)methyl)benzamide]
< 300 nM | 90 nM | CC(C)(C(=O)NCCN1CCC(CNC(=O)c2cccc(OC(F)(F)F)c2)CC1)C(F)(F)F [Compound 496, N-((1-(2-(3,3,3-trifluoro-2,2-dimethylpropanamido)ethyl)piperidin-4-yl)methyl)-3-(trifluoromethoxy)benzamide]

IC50 [1] | IC50 [2] | Structure (SMILES)
770 nM | 160 nM | Cc1cc(C)cc(C(=O)NCC2CCN(CCNC(=O)C3(C(F)(F)F)CC3)CC2)c1 [Compound 497, 3,5-dimethyl-N-((1-(2-(1-(trifluoromethyl)cyclopropanecarbox-amido)ethyl)piperidin-4-yl)methyl) benzamide]
770 nM | 220 nM | Cc1cc(F)cc(C(=O)NCC2CCN(CCNC(=O)C3(C(F)(F)F)CC3)CC2)c1 [Compound 498, 3-fluoro-5-methyl-N-((1-(2-(1-(trifluoromethyl)cyclopropanecarbox-amido)ethyl)piperidin-4-yl)methyl) benzamide]
590 nM | 230 nM | O=C(NCC1CCN(CCNC(=O)C2(C(F)(F)F)CC2)CC1)c1cccc(Cl)c1 [Compound 502, 3-chloro-N-((1-(2-(1-(trifluoromethyl)cyclopropanecarbox-amido)ethyl)piperidin-4-yl)methyl) benzamide]
1550 nM | 7200 nM | CC(C)(C)N/C(CN1CCC(CNC(=O)c2cc(C(F)(F)F)cc(C(F)(F)F)c2)CC1)=N\C#N [Compound 503, (Z)-N-((1-(2-(tert-buylamino)-2-(cyanoimino)ethyl)piperidin-4-yl)methyl)-3,5-bis(trifluoromethyl) benzamide]
420 nM | 420 nM | O=C(NCC1CCN(CC(=O)N2CCC[C@@H]2C(F)(F)F)CC1)c1cc(F)cc(Cl)c1 [Compound 504, (R)-3-chloro-5-fluoro-N-((1-(2-oxo-2-(2-(trifluoromethyl)pyrrolidin-1-yl)ethyl)piperidin-4-yl)methyl) benzamide]
770 nM | 580 nM | COc1cc(F)cc(C(=O)NCC2CCN(CC(=O)N3CCC[C@@H]3C(F)(F)F)CC2)c1 [Compound 505, (R)-3-fluoro-5-methoxy-N-((1-(2-oxo-2-(2-(trifluoromethyl)pyrrolidin-1-yl)ethyl)piperidin-4-yl)methyl) benzamide]
5360 nM | 1480 nM | Cc1cc(F)cc(C(=O)NCC2CCN(CC(=O)N3CCC[C@@H]3C(F)(F)F)CC2)c1 [Compound 506, (R)-3-fluoro-5-methyl-N-((1-(2-oxo-2-(2-(trifluoromethyl)pyrrolidin-1-yl)ethyl)piperidin-4-yl)methyl) benzamide]
2980 nM | 1480 nM | O=C(NCC1CCN(CC(=O)N2CCC[C@@H]2C(F)(F)F)CC1)c1cccc(Cl)c1 [Compound 507, (R)-3-chloro-N-((1-(2-oxo-2-(2-(trifluoromethyl)pyrrolidin-1-yl)ethyl)piperidin-4-yl)methyl) benzamide]
> 10000 nM | 9220 nM | O=C(NCC1CCN(CC(=O)N2CCC[C@@H]2C(F)(F)F)CC1)c1cccc(F)c1 [Compound 508, (R)-3-fluoro-N-((1-(2-oxo-2-(2-(trifluoromethyl)pyrrolidin-1-yl)ethyl)piperidin-4-yl)methyl) benzamide]
3970 nM | > 10000 nM | CC(C)(C)N/C(CN1CCC(CNC(=O)c2cc(F)cc(C(F)(F)F)c2)CC1)=N\C#N [Compound 510, (Z)-N-((1-(2-(tert-butylamino)-2-(cyanoimino)ethyl)piperidin-4-yl)methyl)-3-fluoro-5-(trifluoromethyl) benzamide]
< 300 nM | 190 nM | O=C(NCC1CCN(CCNC(=O)C2(C(F)(F)F)CCC2)CC1)c1cccc(Cl)c1 [Compound 512, 3-chloro-N-((1-(2-(1-(trifluoromethyl)cyclobutanecarboxamido)ethyl)piperidin-4-yl)methyl)benzamide]
< 300 nM | 310 nM | CC(C)(C)NS(=O)(=O)CCN1CCC(CNC(=O)c2cc(F)cc(C(F)(F)F)c2)CC1 [Compound 514, N-((1-(2-(N-tert-butylsulfamoyl)ethyl)piperidin-4-yl)methyl)-3-fluoro-5-(trifluoromethyl)benzamide]
310 nM | 310 nM | CN(CCN1CCC(CNC(=O)c2cc(F)cc(C(F)(F)F)c2)CC1)C(=O)C(C)(C)C [Compound 515, 3-fluoro-N-((1-(2-(N-methylpivalamido)ethyl)piperidin-4-yl)methyl)-5-(trifluoromethyl)benzamide]
460 nM | 220 nM | CN(CCN1CCC(CNC(=O)c2cc(F)cc(C(F)(F)F)c2)CC1)C(=O)C1CCCC1 [Compound 516, 3-fluoro-N-((1-(2-(N-methylcyclopentanecarboxamido)ethyl)piperidin-4-yl)methyl)-5-(trifluoromethyl)benzamide]
1100 nM | 420 nM | CN(CCN1CCC(CNC(=O)c2cc(F)cc(C(F)(F)F)c2)CC1)C(=O)CCC(F)(F)F [Compound 517, 3-fluoro-N-((1-(2-(4,4,4-trifluoro-N-methylbutanamido)ethyl)piperidin-4-yl)methyl)-5-(trifluoromethyl)benzamide]
